Results: article PMC12251151, “Understanding Anti-Obesity Potential of Four Porphyrin Compounds by Investigating Pancreatic Lipase Inhibition” (Molecules, 2025)
Read-outs that look alike come from different tables or passages of the source.

How the values were obtained:
[1] = target: T1, pancreatic lipase (PL) (Sus scrofa, UniProt P00591); assay: Fluorescence quenching and binding interaction with PL (Stern-Volmer, double logarithmic, Van't Hoff); set-up: species or system porcine; details: for Fluorescence quenching mechanism on PL: Stern-Volmer analysis; for Fluorescence quenching mechanism on PL / ΔH^0 / ΔS^0: 298-310 K; for ΔH^0 / ΔS^0: Van't Hoff; for Main driving forces of binding to PL: from signs of ΔH^0 and ΔS^0; for Kd: read-out: Ka (binding constant) (converted)
T1 construct: lipase (porcine pancreas); purchased Shanghai Yuanye Co., Ltd., Shanghai, China; host or cells: porcine pancreas
T1 sequence (P00591 1-450): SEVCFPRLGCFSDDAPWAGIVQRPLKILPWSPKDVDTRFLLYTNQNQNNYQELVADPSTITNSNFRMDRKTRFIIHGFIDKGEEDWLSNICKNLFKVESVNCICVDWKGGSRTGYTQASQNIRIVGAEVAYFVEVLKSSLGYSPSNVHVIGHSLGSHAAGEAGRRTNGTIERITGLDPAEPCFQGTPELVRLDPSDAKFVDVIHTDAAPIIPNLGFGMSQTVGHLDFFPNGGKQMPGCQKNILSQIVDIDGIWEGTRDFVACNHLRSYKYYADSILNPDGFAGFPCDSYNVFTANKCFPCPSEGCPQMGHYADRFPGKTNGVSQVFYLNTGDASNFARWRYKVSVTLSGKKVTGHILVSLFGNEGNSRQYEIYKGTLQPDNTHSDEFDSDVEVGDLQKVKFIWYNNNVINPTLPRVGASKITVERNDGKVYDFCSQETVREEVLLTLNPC
From the text: Judged by the Stern–Volmer equation, the formula is referred to (3):(3) F0/F=1+KSV[Q]=1+Kqτ0[Q],
The modified Stern–Volmer equation [34], formula reference (4):(4) F0/F=e^KSV[Q]=e^Kqτ0[Q],
The double logarithmic equation:(5) logF0−F/F=logKa+nlog[Q],
In the formula, F0 and F are the fluorescence intensities of the enzyme before and after the addition of four porphyrin compounds. KSV and Kq represent the fluorescence quenching constant and the quenching rate constant, respectively. τ0 (10^−8 s) is the average lifetime of the fluorescent molecule in the absence of the fluorescence quencher. [Q] denotes the concentration of the porphyrin compound. Ka is the binding constant. n is the number of binding sites.
The relevant thermodynamic parameters were calculated by Equations (6) and (7), and the Van’t Hoff curves of four porphyrin compounds and enzymes were obtained:(6) lnKa=−ΔH^0/RT+ΔS^0/R, (7) ΔG^0=ΔH^0−TΔS^0=−RTlnKa,
The method of Li et al. was referred to and appropriate changes were made. A series of concentrations of porphyrin compounds were mixed with pancreatic lipase (5 mg/mL) at a volume ratio of 1:1 and incubated at 298, 304, and 310 K for 5 min. The excitation wavelength of the Hitachi fluorescence spectrometer F-7000 ([…], Japan) was set to 280 nm, the slit width was set to 5 nm, and the scanning range was set to 300–500 nm. In order to eliminate the influence of ‘internal filtering effect’ [42], the following formula is used for correction. Fcor=Fobse^(Aex+Aem)/2 , where Fcor and Fobs are the corrected fluorescence intensity and the experimentally measured fluorescence intensity, and Aex and Aem are the UV absorption values of the system at the excitation and emission wavelengths, respectively.

[2] = target: T1, pancreatic lipase (PL); assay: Mode of pancreatic lipase inhibition (reversibility, Lineweaver-Burk kinetics); format: biochemical, porcine; details: for Reversibility of PL inhibition: enzyme concentration vs reaction rate plots; for Ki: uncompetitive model, intercept replot
Method: In the formula, v , Vmax, Km, and Ki represent reaction rate, maximum reaction rate, Michaelis constant, and free enzyme inhibition constant, respectively. [S] denotes the substrate concentration. [I] denotes the inhibitor concentration.
By analyzing the relationship between enzyme concentration and reaction rate, a fitting straight line was drawn to determine whether it was reversible.
The concentration of PL was fixed at 5 mg/mL, and the concentration of the substrate 4-nitrophenyl laurate was changed (0.40, 0.80, 1.20, 1.60 mg/mL). By analyzing the relationship between the concentration of different substrates and the reaction rate of the enzyme, the Lineweaver–Burk double reciprocal curve was plotted to determine the inhibition type and calculate the inhibition constant.

Fluorescence quenching mechanism on PL [1] | Kq (quenching rate constant) ([1]; T 298 K) | Ksv (fluorescence quenching constant) ([1]; T 298 K) | n (number of binding sites) ([1]; T 298 K) | ΔG^0 ([1]; T 298 K) | Kq (quenching rate constant) ([1]; T 304 K) | Ksv (fluorescence quenching constant) ([1]; T 304 K) | n (number of binding sites) ([1]; T 304 K) | ΔG^0 ([1]; T 304 K) | Kq (quenching rate constant) ([1]; T 310 K) | Ksv (fluorescence quenching constant) ([1]; T 310 K) | n (number of binding sites) ([1]; T 310 K) | ΔG^0 ([1]; T 310 K) | ΔH^0 [1] | ΔS^0 [1] | Main driving forces of binding to PL [1] | Reversibility of PL inhibition [2] | Ki [2] | Kd ([1]; T 298 K) | Kd ([1]; T 304 K) | SMILES | other results
static quenching | 2.36 ± 0.01 ×10^12 L/mol/s | 2.36 ± 0.01 ×10^4 L/mol | 0.93 | -23.56 ± 0.08 kJ/mol | 2.33 ± 0.03 ×10^12 L/mol/s | 2.33 ± 0.03 ×10^4 L/mol | 0.95 | -24.48 ± 0.05 kJ/mol | 2.32 ± 0.03 ×10^12 L/mol/s | 2.32 ± 0.03 ×10^4 L/mol | 0.97 | -25.37 ± 0.05 kJ/mol | 21.34 ± 0.04 kJ/mol | 150.70 ± 0.07 J/mol/k | hydrophobic forces | reversible | 196.15 ± 0.131 µM |  |  | O=C([O-])c1ccc(C2=C3C=CC(=N3)C(c3ccc(C(=O)[O-])cc3)=C3C=CC(=N3)C(=c3ccc(=C([O-])[O-])cc3)c3ccc([n-]3)C(c3ccc(C(=O)[O-])cc3)=C3C=CC2=N3)cc1.[67Cu+2].[H+].[H+].[H+].[H+] [Cu-TCPP, Cu (II) meso-Tetra (4-carboxyphenyl) porphine] | Ka (binding constant) ([1]; T 298 K): 0.13 ± 0.01 ×10^5 L/mol; Ka (binding constant) ([1]; T 304 K): 0.16 ± 0.01 ×10^5 L/mol; Ka (binding constant) ([1]; T 310 K): 0.19 ± 0.01 ×10^5 L/mol; Km ([2]; inhibitor C 29.33 μM): 192 ± 4.9 nM; Vmax ([2]; inhibitor C 29.33 μM): 0.0052 ± 0.0013 ΔOD/min; Km ([2]; inhibitor C 58.66 μM): 164 ± 3.7 nM; Vmax ([2]; inhibitor C 58.66 μM): 0.0044 ± 0.0009 ΔOD/min; Km ([2]; inhibitor C 117.33 μM): 133 ± 2.2 nM; Vmax ([2]; inhibitor C 117.33 μM): 0.0036 ± 0.0006 ΔOD/min; Km ([2]; inhibitor C 175.99 μM): 112 ± 4.6 nM; Vmax ([2]; inhibitor C 175.99 μM): 0.0030 ± 0.0012 ΔOD/min; Km ([2]; inhibitor C 234.66 μM): 98.8 ± 1.7 nM; Vmax ([2]; inhibitor C 234.66 μM): 0.0026 ± 0.0005 ΔOD/min
static quenching | 9.70 ± 0.11 ×10^12 L/mol/s | 9.70 ± 0.11 ×10^4 L/mol | 1.05 | -29.78 ± 0.05 kJ/mol | 8.80 ± 0.06 ×10^12 L/mol/s | 8.80 ± 0.06 ×10^4 L/mol | 1.01 | -29.03 ± 0.07 kJ/mol | 8.17 ± 0.08 ×10^12 L/mol/s | 8.17 ± 0.08 ×10^4 L/mol | 0.96 | -28.06 ± 0.06 kJ/mol | -72.32 ± 0.05 kJ/mol | −142.66 ± 0.06 J/mol/k | hydrogen bonds and van der Waals forces | reversible | 149.9 ± 0.195 µM | 6020 nM | 10300 nM | Nc1ccc(-c2c3nc(c(-c4ccc(N)cc4)c4ccc([nH]4)c(-c4ccc(N)cc4)c4nc(c(-c5ccc(N)cc5)c5ccc2[nH]5)C=C4)C=C3)cc1 [TAPP, 5,10,15,20-Tetrakis (4-aminophenyl) porphyrin] | Kd ([1]; T 310 K): 18500 nM; Vmax ([2]; inhibitor C 118.55 μM): 0.0023 ± 0.0003 ΔOD/min; Vmax ([2]; inhibitor C 177.83 μM): 0.0018 ± 0.0003 ΔOD/min; Vmax ([2]; inhibitor C 237.11 μM): 0.0016 ± 0.0006 ΔOD/min; Vmax ([2]; inhibitor C 266.75 μM): 0.0015 ± 0.0003 ΔOD/min; Vmax ([2]; inhibitor C 296.38 μM): 0.0014 ± 0.0005 ΔOD/min
static quenching | 4.60 ± 0.07 ×10^12 L/mol/s | 4.60 ± 0.07 ×10^4 L/mol | 1.30 | -33.79 ± 0.04 kJ/mol | 4.59 ± 0.06 ×10^12 L/mol/s | 4.59 ± 0.06 ×10^4 L/mol | 1.26 | -33.24 ± 0.13 kJ/mol | 4.50 ± 0.06 ×10^12 L/mol/s | 4.50 ± 0.06 ×10^4 L/mol | 1.16 | -32.38 ± 0.08 kJ/mol | -68.59 ± 0.07 kJ/mol | −116.60 ± 0.11 J/mol/k | hydrogen bonds and van der Waals forces | reversible | 53.49 ± 0.141 µM | 1190 nM | 1940 nM | O=C(O)c1ccc(-c2c3nc(c(-c4ccc(C(=O)O)cc4)c4ccc([nH]4)c(-c4ccc(C(=O)O)cc4)c4nc(c(-c5ccc(C(=O)O)cc5)c5ccc2[nH]5)C=C4)C=C3)cc1 [TCPP, meso-Tetra (4-carboxyphenyl) porphine] | Kd ([1]; T 310 K): 3500 nM; Vmax ([2]; inhibitor C 12.65 μM): 0.0042 ± 0.0011 ΔOD/min; Vmax ([2]; inhibitor C 31.61 μM): 0.0037 ± 0.0008 ΔOD/min; Vmax ([2]; inhibitor C 63.23 μM): 0.0027 ± 0.0012 ΔOD/min; Vmax ([2]; inhibitor C 126.45 μM): 0.0015 ± 0.0004 ΔOD/min; Vmax ([2]; inhibitor C 189.68 μM): 0.0012 ± 0.0003 ΔOD/min

SMILES | Fluorescence quenching mechanism on PL [1] | Kq (quenching rate constant) ([1]; T 298 K) | Ksv (fluorescence quenching constant) ([1]; T 298 K) | n (number of binding sites) ([1]; T 298 K) | ΔG^0 ([1]; T 298 K) | Kq (quenching rate constant) ([1]; T 304 K) | Ksv (fluorescence quenching constant) ([1]; T 304 K) | n (number of binding sites) ([1]; T 304 K) | ΔG^0 ([1]; T 304 K) | Kq (quenching rate constant) ([1]; T 310 K) | Ksv (fluorescence quenching constant) ([1]; T 310 K) | n (number of binding sites) ([1]; T 310 K) | ΔG^0 ([1]; T 310 K) | ΔH^0 [1] | ΔS^0 [1] | Main driving forces of binding to PL [1] | Reversibility of PL inhibition [2] | Ki [2] | Kd ([1]; T 298 K) | Kd ([1]; T 304 K) | other results
Oc1ccc(-c2c3nc(c(-c4ccc(O)cc4)c4ccc([nH]4)c(-c4ccc(O)cc4)c4nc(c(-c5ccc(O)cc5)c5ccc2[nH]5)C=C4)C=C3)cc1 [THPP, 5,10,15,20-Tetrakis (4-hydroxyphenyl) porphyrin] | mixed quenching dominated by static quenching and supplemented by dynamic quenching | 1.36 ± 0.02 ×10^12 L/mol/s | 1.36 ± 0.02 ×10^4 L/mol | 1.52 | -37.28 ± 0.17 kJ/mol | 1.17 ± 0.03 ×10^12 L/mol/s | 1.17 ± 0.03 ×10^4 L/mol | 1.38 | -34.99 ± 0.11 kJ/mol | 1.11 ± 0.04 ×10^12 L/mol/s | 1.11 ± 0.04 ×10^4 L/mol | 1.33 | -33.57 ± 0.09 kJ/mol | -129.48 ± 0.11 kJ/mol | −309.86 ± 0.12 J/mol/k | hydrogen bonds and van der Waals forces | reversible | 37.03 ± 0.186 µM | 292 nM | 968 nM | Kd ([1]; T 310 K): 2200 nM; Vmax ([2]; inhibitor C 36.84 μM): 0.0041 ± 0.0009 ΔOD/min; Vmax ([2]; inhibitor C 73.67 μM): 0.0035 ± 0.0013 ΔOD/min; Vmax ([2]; inhibitor C 147.34 μM): 0.0018 ± 0.0007 ΔOD/min; Vmax ([2]; inhibitor C 221.01 μM): 0.0012 ± 0.0004 ΔOD/min; Vmax ([2]; inhibitor C 294.68 μM): 0.0009 ± 0.0002 ΔOD/min
